Laboratory results reported in PMC4026384, “Antibacterial Activity of THAM Trisphenylguanide against Methicillin-Resistant Staphylococcus aureus” (PLoS ONE, 2014).
In brackets after ≈: the same amount, converted by molar mass.

Legend:
[1] = system: A. baumannii ATCC BAA1605; assay: Bacterial viability assay; assay type: cell-based, Acinetobacter baumannii; conditions: one hour in PBS, CFU, ± SEM
Method: (§1) Supplementary file pone.0097742.s003.doc: Table S1 Bacterial viability assays. Bacteria were grown at 37°C to mid-log phase (OD600 ∼0.4). The bacteria were diluted to approximately 10^4 to 10^5 colony forming units (CFU) per milliliter and added to a solution of phosphate buffered saline (PBS, 16 mM phosphate, 0.14 M NaCl, pH 7.2) containing the compound at varied concentrations. Samples were incubated at 37°C for one hour and then plated on Luria Bertani (LB) agar at appropriate dilutions in PBS. The plates were incubated overnight at 37°C and colonies enumerated the following day. IC50s were calculated from graphs of CFU as a function of compound concentration. Chlorhexidine was used as a positive control. […] (DOC) Click here for additional data file.
(§2) Bacterial viability assays. Bacteria were grown at 37°C to mid-log phase (OD600 ~0.4). The bacteria were diluted to approximately 10^4 to 10^5 colony forming units (CFU) per milliliter and added to a solution of phosphate buffered saline (PBS, 16 mM phosphate, 0.14 M NaCl, pH 7.2) containing the compound at varied concentrations. Samples were incubated at 37°C for one hour and then plated on Luria Bertani (LB) agar at appropriate dilutions in PBS. The plates were incubated overnight at 37°C and colonies enumerated the following day. IC50s were calculated from graphs of CFU as a function of compound concentration. Chlorhexidine was used as a positive control.

[2] = system: A. baumannii ATCC 19606; assay: Bacterial viability assay; assay type: cell-based, Acinetobacter baumannii; conditions: one hour in PBS, CFU, ± SEM
Method: as §1, §2

[3] = system: Enterococcus faecalis MSU#10; assay: Minimum inhibitory concentration (microdilution); assay type: cell-based; conditions: E. faecalis MSU#10; LB media; median of at least 3 determinations
Method: (§3) Minimum inhibitory concentration (MIC) values were determined for those compounds showing the most antibacterial activity in the bacterial viability assays (see Supplemental Materials) against each of the strains of bacteria using a microdilution method in 96 well plates with LB media according to guidelines published by the British Society for Antimicrobial Chemotherapy. Minimum bactericidal concentrations (MBC) were determined by plating 10 µL and 100 µL from each well showing no signs of growth after overnight incubation of the MIC plates and determining the minimum concentration showing a 3-log reduction of viable bacteria. MIC and MBC were also determined in cation-adjusted Mueller-Hinton broth (Hardy Diagnostics, Santa Maria, CA) for some compounds and strains.

[4] = system: Pseudomonas aeruginosa (strain PA01); assay: Minimum inhibitory concentration (microdilution); assay type: cell-based; conditions: P. aeruginosa PA01; LB media; median of at least 3 determinations
Method: as §3

[5] = system: Escherichia coli (strain K91); assay: Minimum inhibitory concentration (microdilution); assay type: cell-based; conditions: E. coli K91; LB media; median of at least 3 determinations
Method: as §3

[6] = system: Enterococcus faecalis ATCC V583; assay: Minimum inhibitory concentration (microdilution); assay type: cell-based; conditions: E. faecalis V583; LB media; median of at least 3 determinations
Method: as §3

[7] = system: Acinetobacter baumannii ATCC 19606; assay: Minimum inhibitory concentration (microdilution); assay type: cell-based; conditions: A. baumannii ATCC 19606; LB media; median of at least 3 determinations
Method: as §3

[8] = system: Staphylococcus aureus RN4220; assay: Minimum inhibitory concentration (microdilution); assay type: cell-based; conditions: S. aureus RN4220; LB media; median of at least 3 determinations
Method: as §3

[9] = system: E. coli K91; assay: Bacterial viability assay; assay type: cell-based, Escherichia coli; conditions: one hour in PBS, CFU, ± SEM
Method: as §1, §2

[10] = system: MRSA strain LAC, USA300; assay: Minimum inhibitory concentration (microdilution); assay type: cell-based, Staphylococcus aureus; conditions: MRSA USA300; LB media; median of at least 3 determinations
Method: as §3

[11] = system: HaCaT human keratinocytes; assay: Cell toxicity assay (MTS); assay type: cell-based; conditions: for CC50: MTS assay, concentration which killed 50% of the cells
Method: The HaCaT cell line was grown in Epilife medium (MEPI500Ca) with human keratinocyte growth supplement (Invitrogen, San Diego, CA). Both types of cells were harvested using Tryspin/EDTA and diluted to 1×10^5 cells per well in a 96-well plate. Ten concentrations covering five orders of magnitude were tested with six replicates per concentration. […] MTS/PMS solution (Promega, Madison, WI) was added to the wells and absorbance was measured at 490 nm two to four hours later. Data was analyzed using GraphPad Prism version 5.0 (GraphPad Software, La Jolla, CA) using a variable slope inhibition dose response curve.

[12] = system: E. faecalis V583; assay: Bacterial viability assay; assay type: cell-based, Enterococcus faecalis; conditions: one hour in PBS, CFU, ± SEM
Method: as §1, §2

[13] = system: E. faecalis MSU#10; assay: Bacterial viability assay; assay type: cell-based, Enterococcus faecalis; conditions: E. faecalis MSU#10; one hour in PBS, CFU; ± SEM; read-out: IC50
Method: as §1, §2

[14] = system: S. aureus RN4220; assay: Bacterial viability assay; assay type: cell-based, Staphylococcus aureus; conditions: one hour in PBS, CFU, ± SEM
Method: (§4) Supplementary file pone.0097742.s003.doc: Table S1 Bacterial viability assays. Bacteria were grown at 37°C to mid-log phase (OD600 ∼0.4). The bacteria were diluted to approximately 10^4 to 10^5 colony forming units (CFU) per milliliter and added to a solution of phosphate buffered saline (PBS, 16 mM phosphate, 0.14 M NaCl, pH 7.2) containing the compound at varied concentrations. Samples were incubated at 37°C for one hour and then plated on Luria Bertani (LB) agar at appropriate dilutions in PBS. The plates were incubated overnight at 37°C and colonies enumerated the following day. IC50s were calculated from graphs of CFU as a function of compound concentration. Chlorhexidine was used as a positive control. Included are those guanide (G), biguanide (BG), phenylguanide (ΦG) compounds that had some antibacterial activity in an initial screen at 30 and 100 µM, as well as their and parent amines. Compounds synthesized from 1,4-butanediamine, 1,6-hexanediamine, trisethylaminomelamine, trisbutylaminomelamine, and the dendrimer PAMAM (G0) were not active against E. coli, P aeruginosa, or S. aureus so they were not tested against the remaining bacteria (data not shown). (DOC) Click here for additional data file.
as §4, with “Bacterial” for “Supplementary file pone.0097742.s003.doc: Table S1 Bacterial”, “~0.4).” for “∼0.4).”, “μM,” for “µM,”, “shown).” for “shown). (DOC) Click here for additional data file.”

[15] = system: P. aeruginosa PA01; assay: Bacterial viability assay; assay type: cell-based, Pseudomonas aeruginosa; conditions: one hour in PBS, CFU, ± SEM
Method: as §1, §2

[16] = system: MRSA USA300; assay: Bacterial viability assay; assay type: cell-based, Staphylococcus aureus; conditions: one hour in PBS, CFU, ± SEM
Method: as §1, §2

| SMILES | IC50 [1] [nM] | IC50 [2] [nM] | MIC [3] [µg/mL] | MIC [4] [µg/mL] | MIC [5] [µg/mL] | MIC [6] [µg/mL] | MIC [7] [µg/mL] | MIC [8] [µg/mL] | IC50 [9] [nM] | MIC [10] [µg/mL] | Relative to chlorhexidine (factor by which cytotoxicity was reduced) [11] | CC50 [11] [µg/mL] | IC50 [12] [nM] | IC50 [13] [nM] | IC50 [14] [nM] | IC50 [15] [nM] | IC50 [16] [nM] |
| --- | --- | --- | --- | --- | --- | --- | --- | --- | --- | --- | --- | --- | --- | --- | --- | --- | --- |
| N=C(N)NCCCCCCCCNc1nc(NCCCCCCCCNC(=N)N)nc(NCCCCCCCCNC(=N)N)n1 [TOAM-3G] | 920 ± 100 | 2600 ± 1100 | 16 (≈ 25.2 µM) | 16 (≈ 25.2 µM) | 8 (≈ 12.6 µM) | >64 | >64 | 2 (≈ 3.15 µM) | 680 ± 40 | 1 (≈ 1.58 µM) | 1.9 | 3.6 (≈ 5.68 µM) | 23000 ± 14000 | 5000 ± 1900 | 4700 ± 100 | 850 ± 190 | 1500 ± 600 |
| NCCCCCCCCNc1nc(NCCCCCCCCN)nc(NCCCCCCCCN)n1 [TOAM] | 1300 ± 600 | 3900 ± 2000 | >64 | 64 (≈ 126 µM) | >64 | >64 | >64 | >64 | 3900 ± 300 | 48 (≈ 94.5 µM) | 2.1 | 4.1 (≈ 8.07 µM) | > 100000 | 77000 ± 30000 | > 100000 | > 100000 | 30000 |
| N=C(NCCCCCCCCNc1nc(NCCCCCCCCNC(=N)Nc2ccccc2)nc(NCCCCCCCCNC(=N)Nc2ccccc2)n1)Nc1ccccc1 [TOAM-3ΦG] | 1700 | 450 ± 230 | 2 (≈ 2.32 µM) | >64 | 2 (≈ 2.32 µM) | 4 (≈ 4.64 µM) | >64 | 2 (≈ 2.32 µM) | 330 ± 110 | 2 (≈ 2.32 µM) | 1.3 | 2.4 (≈ 2.78 µM) | 1700 ± 400 | 1200 ± 100 | 540 ± 90 | 1000 ± 300 | 240 ± 30 |
